Data on 3 compounds can be found in ChEMBL document CHEMBL5104099, “Recent applications of seven-membered rings in drug design” (Bioorg Med Chem, 2022).

For series [1], the target named is Human immunodeficiency virus type 1 protease (Human immunodeficiency virus 1, UniProt Q72874). Kind of series: Binding affinity to HIV-1 protease assessed as inhibition constant incubated for 60 mins by mass spectrometric analysis.
A short description of series [2]: Aqueous solubility of the compound. It counts as physicochemical.
Series [3] addresses Tyrosine-protein kinase BTK (Homo sapiens, UniProt Q06187). Kind of series: Inhibition of BTK in human whole blood. The format is tissue-based.

≈ marks a conversion by molar mass, not a printed value.

Tyrosine-protein kinase BTK, sequence (Q06187 whole entry): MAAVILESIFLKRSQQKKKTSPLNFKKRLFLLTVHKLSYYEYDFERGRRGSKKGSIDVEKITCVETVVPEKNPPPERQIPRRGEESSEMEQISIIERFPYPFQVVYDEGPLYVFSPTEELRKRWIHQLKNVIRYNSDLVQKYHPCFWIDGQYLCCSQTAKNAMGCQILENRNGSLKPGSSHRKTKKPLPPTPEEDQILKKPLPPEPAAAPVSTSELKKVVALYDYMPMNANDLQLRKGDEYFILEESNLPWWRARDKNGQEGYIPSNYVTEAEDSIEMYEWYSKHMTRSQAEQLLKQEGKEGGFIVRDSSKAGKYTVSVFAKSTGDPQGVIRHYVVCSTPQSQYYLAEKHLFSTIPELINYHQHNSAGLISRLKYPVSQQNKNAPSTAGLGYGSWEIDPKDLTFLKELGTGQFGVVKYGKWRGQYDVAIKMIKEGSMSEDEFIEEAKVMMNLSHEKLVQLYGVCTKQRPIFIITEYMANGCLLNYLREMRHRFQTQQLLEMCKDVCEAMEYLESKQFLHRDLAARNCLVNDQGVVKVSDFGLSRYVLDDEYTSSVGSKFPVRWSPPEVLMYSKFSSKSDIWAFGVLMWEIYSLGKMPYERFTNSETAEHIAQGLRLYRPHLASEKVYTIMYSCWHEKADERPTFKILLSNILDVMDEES

On to `CC(C)[C@H]1Cc2cc(F)ccc2S(=O)(=O)N(C[C@@H](O)[C@H](Cc2ccccc2)NC(=O)O[C@H]2CCOC2)C1`, for which the Ki in series [1] stood at 0.36 nM.

Turning to `Cn1c2c(cc(Nc3ccc(C(=O)N4CCOCC4)cn3)c1=O)-c1cccc(-n3ncc4cc(C(C)(C)C)cc(F)c4c3=O)c1C[C@H](O)C2`, the solubility in series [2] was determined as 1 µg/mL (≈ 1.5 µM).

`Cn1cc(-c2cccc(-n3ncc4cc(C(C)(C)C)cc(F)c4c3=O)c2CO)cc(Nc2ccc(C(=O)N3CCOCC3)cn2)c1=O`: 1 nM corresponded to half-maximal inhibition in series [3] (IC50).

For orientation: Ki means a dissociation constant, usually derived from enzyme kinetics or from competition with a known ligand. Usually solubility stands for the concentration that dissolves in the medium under given conditions. A higher solubility goes with much dissolved substance. Broadly, the IC50 is the concentration needed to halve the response being measured. High values mean weaker potency in that assay, low ones greater potency in that assay.
